PubChem BioAssay AID256 (DTP/NCI, 2004)
Toxic doses and inconclusive results are not listed.

Tested on: CD2F1 mice, L1210 leukemia ip, survival T/C
Experiment: NCI In Vivo Anticancer Drug Screen. Data for tumor model L1210 Leukemia (intraperitoneal) in CD2F1 (CDF1) mice
Details: endpoint: mean survival time, higher = longer survival
Procedure, shortened: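 Activity against a transplanted murine tumor was judged by comparing the compound group with a vehicle group. The outcome in the treated animals was divided by that in the controls.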

[1] = dose: 100.0 mg/kg/injection, schedule: Q01DX009 (ip), vehicle: saline with Tween-80

CC(C)c1ccc(/C=C2/CCCCC2=O)cc1
T/C (dose: 25.0 mg/kg/injection, schedule: Q01DX009 (ip), vehicle: saline with Tween-80): 93 % of control | T/C (dose: 50.0 mg/kg/injection, schedule: Q01DX009 (ip), vehicle: saline with Tween-80): 97 % of control | T/C [1]: 97 % of control

CC1CC(OC(=O)c2ccccc2)CCC1=O (centres undefined)
T/C (dose: 5.0 mg/kg/injection, schedule: Q01DX001 (ip), vehicle: other): 102 % of control | T/C (dose: 10.0 mg/kg/injection, schedule: Q01DX001 (ip), vehicle: other): 106 % of control | T/C (dose: 20.0 mg/kg/injection, schedule: Q01DX001 (ip), vehicle: other): 103 % of control | T/C (dose: 40.0 mg/kg/injection, schedule: Q01DX001 (ip), vehicle: other): 108 % of control | T/C (dose: 80.0 mg/kg/injection, schedule: Q01DX001 (ip), vehicle: other): 96 % of control

NC(=S)N/N=C/c1cccnc1
T/C (dose: 50.0 mg/kg/injection, schedule: Q01DX009 (ip), vehicle: saline): 109 % of control | T/C (dose: 100.0 mg/kg/injection, schedule: Q01DX009 (ip), vehicle: saline): 101 % of control | T/C (dose: 200.0 mg/kg/injection, schedule: Q01DX009 (ip), vehicle: saline): 106 % of control

Nc1nc(N)c2c(n1)NCN(Cc1ccc(Cl)cc1Cl)C2
T/C (dose: 0.75 mg/kg/injection, schedule: Q01DX009 (ip), vehicle: water): 105 % of control | T/C (dose: 1.5 mg/kg/injection, schedule: Q01DX009 (ip), vehicle: water): 94 % of control | T/C (dose: 3.0 mg/kg/injection, schedule: Q01DX009 (ip), vehicle: water): 100 % of control | T/C (dose: 6.0 mg/kg/injection, schedule: Q01DX009 (ip), vehicle: water): 100 % of control | T/C (dose: 12.0 mg/kg/injection, schedule: Q01DX009 (ip), vehicle: water): 96 % of control | T/C (dose: 24.0 mg/kg/injection, schedule: Q01DX009 (ip), vehicle: water): 100 % of control | T/C (dose: 37.5 mg/kg/injection, schedule: Q01DX009 (ip), vehicle: water): 96 % of control | T/C (dose: 75.0 mg/kg/injection, schedule: Q01DX009 (ip), vehicle: water): 91 % of control

C=C1CC2CCC1C2 (centres undefined)
T/C [1]: 96 % of control | T/C (dose: 100.0 mg/kg/injection, schedule: Q04DX003 (ip), vehicle: saline with Tween-80): 104 % of control | T/C (dose: 200.0 mg/kg/injection, schedule: Q04DX003 (ip), vehicle: saline with Tween-80): 98 % of control | T/C (dose: 400.0 mg/kg/injection, schedule: Q04DX003 (ip), vehicle: saline with Tween-80): 98 % of control

Clc1cc(N2CC2)nc(N2CC2)n1
T/C (dose: 0.94 mg/kg/injection, schedule: Q01DX009 (ip), vehicle: saline): 122 % of control | T/C (dose: 1.41 mg/kg/injection, schedule: Q01DX009 (ip), vehicle: saline): 150 % of control | T/C (dose: 1.6 mg/kg/injection, schedule: Q01DX009 (ip), vehicle: saline): 120 % of control | T/C (dose: 4.5 mg/kg/injection, schedule: Q01DX009 (ip), vehicle: saline): 168 % of control | T/C (dose: 7.5 mg/kg/injection, schedule: Q01DX009 (ip), vehicle: saline): 89 % of control

CCCCCCCCCCC(=O)CCCCC
T/C (dose: 100.0 mg/kg/injection, schedule: Q01DX009 (ip), vehicle: other): 101 % of control | T/C (dose: 100.0 mg/kg/injection, schedule: Q04DX003 (ip), vehicle: other): 105 % of control | T/C (dose: 200.0 mg/kg/injection, schedule: Q01DX009 (ip), vehicle: other): 107 % of control | T/C (dose: 200.0 mg/kg/injection, schedule: Q04DX003 (ip), vehicle: other): 100 % of control | T/C (dose: 400.0 mg/kg/injection, schedule: Q01DX009 (ip), vehicle: other): 104 % of control | T/C (dose: 400.0 mg/kg/injection, schedule: Q04DX003 (ip), vehicle: other): 94 % of control

Cn1c(=O)c2c(nc(-[n+]3ccccc3)n2C)n(C)c1=O
T/C (dose: 12.5 mg/kg/injection, schedule: Q01DX005 (ip), vehicle: water): 94 % of control | T/C (dose: 25.0 mg/kg/injection, schedule: Q01DX005 (ip), vehicle: water): 100 % of control | T/C (dose: 50.0 mg/kg/injection, schedule: Q01DX005 (ip), vehicle: water): 103 % of control | T/C (dose: 100.0 mg/kg/injection, schedule: Q01DX005 (ip), vehicle: water): 103 % of control | T/C (dose: 200.0 mg/kg/injection, schedule: Q01DX005 (ip), vehicle: water): 120 % of control
